Test results: patent US9326506B2, “Preparation method, agricultural composition and applications of natural brassinolide analogs” (CHENGDU NEWSUN CROPSCIENCE CO., LTD, priority 2012, dated 2016)

System: rice
Experiment: Low temperature assay on rice seedlings
Format: in vivo
Protocol: According to a low temperature assay, we measured parameters including plant height, number of leaf, area of leaf, number of tiller, weight of root at low temperature to completely determine effects of the natural brassinolide analogues on the resistance to low temperature of a plant.
The natural brassinolide analogues, BR1, BR2, BR3, BR4, BR5 and BR6, used herein, were those prepared by the method of Example 1. Respectively the analogues were dissolved into 95% (V/V) ethanol solution, and then diluted with pure water to 1 mg/L, 0.1 mg/L, 0.01 mg/L, 0.001 mg/L and 0.0001 mg/L. In addition, pure water was used as a control.
After rice seeds were disinfected by using 5% sodium hypochlorite solution treatment, they were rinsed with distilled water until their pH>7, placed into a petri dish in a dark incubator, and cultured by using water at 30° C.±2° C. for 9 days. Then respectively the nine-day-old etiolated seedlings of rice were immersed in the above solutions containing different concentrations of the natural brassinolide analogues or pure water, and cultured at the temperature of 1° C., 2° C., 3° C., 4° C. and 5° C. for 24 hr. The parameters including plant height, area of leaf and weight of root after 3, 6, 9 and 12 days and number of leaf and number of tiller after 12 days were measured.

CC[C@@H](C(C)C)[C@@H](O)[C@H](O)[C@@H](C)[C@H]1CCC2C3COC(=O)C4C[C@H](O)[C@H](O)C[C@]4(C)C3CC[C@@]21C (stereo partly shown) [BR2]
Height (0.01 mg/l, 3 °C, 9 days): 7.7 cm
Weight of root (0.01 mg/l, 3 °C, 9 days): 2.9 g
Area of leaf (0.01 mg/l, 3 °C, 12 days): 13.2 cm^2
Height (0.01 mg/l, 3 °C, 12 days): 7.9 cm
Number of leaf (0.01 mg/l, 3 °C, 12 days): 3
Number of tiller (0.01 mg/l, 3 °C, 12 days): 2
Weight of root (0.01 mg/l, 3 °C, 12 days): 2.9 g
Area of leaf (0.01 mg/l, 4 °C, 3 days): 10.8 cm^2
Height (0.01 mg/l, 4 °C, 3 days): 7.1 cm
Weight of root (0.01 mg/l, 4 °C, 3 days): 2.5 g
Area of leaf (0.01 mg/l, 4 °C, 6 days): 12.4 cm^2
Height (0.01 mg/l, 4 °C, 6 days): 7.5 cm
Weight of root (0.01 mg/l, 4 °C, 6 days): 2.6 g
Area of leaf (0.01 mg/l, 4 °C, 9 days): 13.2 cm^2
Height (0.01 mg/l, 4 °C, 9 days): 7.7 cm
Weight of root (0.01 mg/l, 4 °C, 9 days): 2.9 g
Area of leaf (0.01 mg/l, 4 °C, 12 days): 13.5 cm^2
Height (0.01 mg/l, 4 °C, 12 days): 7.8 cm
Number of leaf (0.01 mg/l, 4 °C, 12 days): 3
Number of tiller (0.01 mg/l, 4 °C, 12 days): 2
Weight of root (0.01 mg/l, 4 °C, 12 days): 3.0 g
Area of leaf (0.01 mg/l, 5 °C, 3 days): 10.3 cm^2
Height (0.01 mg/l, 5 °C, 3 days): 7.4 cm
Weight of root (0.01 mg/l, 5 °C, 3 days): 2.8 g
Area of leaf (0.01 mg/l, 5 °C, 6 days): 13.1 cm^2
Height (0.01 mg/l, 5 °C, 6 days): 7.6 cm
Weight of root (0.01 mg/l, 5 °C, 6 days): 3.0 g
Area of leaf (0.01 mg/l, 5 °C, 9 days): 16.4 cm^2
Height (0.01 mg/l, 5 °C, 9 days): 8 cm
Weight of root (0.01 mg/l, 5 °C, 9 days): 3.4 g
Area of leaf (0.01 mg/l, 5 °C, 12 days): 17 cm^2
Height (0.01 mg/l, 5 °C, 12 days): 8.2 cm
Number of leaf (0.01 mg/l, 5 °C, 12 days): 4
Number of tiller (0.01 mg/l, 5 °C, 12 days): 3
Weight of root (0.01 mg/l, 5 °C, 12 days): 3.9 g
Area of leaf (0.1 mg/l, 1 °C, 3 days): 10.1 cm^2
Height (0.1 mg/l, 1 °C, 3 days): 7.0 cm
Weight of root (0.1 mg/l, 1 °C, 3 days): 2.8 g
Area of leaf (0.1 mg/l, 1 °C, 6 days): 11 cm^2
Height (0.1 mg/l, 1 °C, 6 days): 7.2 cm
Weight of root (0.1 mg/l, 1 °C, 6 days): 3.0 g
Area of leaf (0.1 mg/l, 1 °C, 9 days): 12.1 cm^2
Height (0.1 mg/l, 1 °C, 9 days): 7.3 cm
Weight of root (0.1 mg/l, 1 °C, 9 days): 3.4 g
Area of leaf (0.1 mg/l, 1 °C, 12 days): 13.4 cm^2
Height (0.1 mg/l, 1 °C, 12 days): 7.4 cm
Number of leaf (0.1 mg/l, 1 °C, 12 days): 3
Number of tiller (0.1 mg/l, 1 °C, 12 days): 3
Weight of root (0.1 mg/l, 1 °C, 12 days): 3.6 g
Area of leaf (0.1 mg/l, 2 °C, 3 days): 10.4 cm^2
Height (0.1 mg/l, 2 °C, 3 days): 7.1 cm
Weight of root (0.1 mg/l, 2 °C, 3 days): 2.8 g
Area of leaf (0.1 mg/l, 2 °C, 6 days): 11.2 cm^2
Height (0.1 mg/l, 2 °C, 6 days): 7.3 cm
Weight of root (0.1 mg/l, 2 °C, 6 days): 3.0 g
Area of leaf (0.1 mg/l, 2 °C, 9 days): 12.6 cm^2
Height (0.1 mg/l, 2 °C, 9 days): 7.3 cm
Weight of root (0.1 mg/l, 2 °C, 9 days): 3.1 g
Area of leaf (0.1 mg/l, 2 °C, 12 days): 13.6 cm^2
Height (0.1 mg/l, 2 °C, 12 days): 7.4 cm
Number of leaf (0.1 mg/l, 2 °C, 12 days): 3
Number of tiller (0.1 mg/l, 2 °C, 12 days): 3
Weight of root (0.1 mg/l, 2 °C, 12 days): 3.2 g
Area of leaf (0.1 mg/l, 3 °C, 3 days): 10.5 cm^2
Height (0.1 mg/l, 3 °C, 3 days): 7.4 cm
Weight of root (0.1 mg/l, 3 °C, 3 days): 2.5 g
Area of leaf (0.1 mg/l, 3 °C, 6 days): 12 cm^2
Height (0.1 mg/l, 3 °C, 6 days): 7.4 cm
Weight of root (0.1 mg/l, 3 °C, 6 days): 2.7 g
Area of leaf (0.1 mg/l, 3 °C, 9 days): 12.6 cm^2
Height (0.1 mg/l, 3 °C, 9 days): 7.8 cm
Weight of root (0.1 mg/l, 3 °C, 9 days): 2.9 g
Area of leaf (0.1 mg/l, 3 °C, 12 days): 13.4 cm^2
Height (0.1 mg/l, 3 °C, 12 days): 7.9 cm
Number of leaf (0.1 mg/l, 3 °C, 12 days): 3
Number of tiller (0.1 mg/l, 3 °C, 12 days): 2
Weight of root (0.1 mg/l, 3 °C, 12 days): 2.9 g
Area of leaf (0.1 mg/l, 4 °C, 3 days): 10.8 cm^2
Height (0.1 mg/l, 4 °C, 3 days): 7.5 cm
Weight of root (0.1 mg/l, 4 °C, 3 days): 2.5 g
Area of leaf (0.1 mg/l, 4 °C, 6 days): 12.1 cm^2
Height (0.1 mg/l, 4 °C, 6 days): 7.5 cm
Weight of root (0.1 mg/l, 4 °C, 6 days): 2.7 g
Area of leaf (0.1 mg/l, 4 °C, 9 days): 13.4 cm^2
Height (0.1 mg/l, 4 °C, 9 days): 8 cm
Weight of root (0.1 mg/l, 4 °C, 9 days): 2.9 g
Area of leaf (0.1 mg/l, 4 °C, 12 days): 13.8 cm^2
Height (0.1 mg/l, 4 °C, 12 days): 8.1 cm
Number of leaf (0.1 mg/l, 4 °C, 12 days): 3
Number of tiller (0.1 mg/l, 4 °C, 12 days): 2
Weight of root (0.1 mg/l, 4 °C, 12 days): 3.1 g
Area of leaf (0.1 mg/l, 5 °C, 3 days): 11 cm^2
Height (0.1 mg/l, 5 °C, 3 days): 7.5 cm
Weight of root (0.1 mg/l, 5 °C, 3 days): 2.9 g
Area of leaf (0.1 mg/l, 5 °C, 6 days): 12.9 cm^2
Height (0.1 mg/l, 5 °C, 6 days): 7.6 cm
Weight of root (0.1 mg/l, 5 °C, 6 days): 3.2 g
Area of leaf (0.1 mg/l, 5 °C, 9 days): 16.8 cm^2
Height (0.1 mg/l, 5 °C, 9 days): 8.1 cm
Weight of root (0.1 mg/l, 5 °C, 9 days): 3.5 g
Area of leaf (0.1 mg/l, 5 °C, 12 days): 19 cm^2
Height (0.1 mg/l, 5 °C, 12 days): 8.3 cm
Number of leaf (0.1 mg/l, 5 °C, 12 days): 3
Number of tiller (0.1 mg/l, 5 °C, 12 days): 2
Weight of root (0.1 mg/l, 5 °C, 12 days): 4.1 g
Area of leaf (1 mg/l, 1 °C, 3 days): 10 cm^2
Height (1 mg/l, 1 °C, 3 days): 7.2 cm
Weight of root (1 mg/l, 1 °C, 3 days): 2.6 g
Area of leaf (1 mg/l, 1 °C, 6 days): 11.2 cm^2
Height (1 mg/l, 1 °C, 6 days): 7.3 cm
Weight of root (1 mg/l, 1 °C, 6 days): 3.1 g
Area of leaf (1 mg/l, 1 °C, 9 days): 12.4 cm^2
Height (1 mg/l, 1 °C, 9 days): 7.3 cm
Weight of root (1 mg/l, 1 °C, 9 days): 3.2 g
Area of leaf (1 mg/l, 1 °C, 12 days): 13 cm^2
Height (1 mg/l, 1 °C, 12 days): 7.9 cm
Number of leaf (1 mg/l, 1 °C, 12 days): 3
Number of tiller (1 mg/l, 1 °C, 12 days): 3
Weight of root (1 mg/l, 1 °C, 12 days): 3.7 g
Area of leaf (1 mg/l, 2 °C, 3 days): 10.2 cm^2
Height (1 mg/l, 2 °C, 3 days): 7.2 cm
Weight of root (1 mg/l, 2 °C, 3 days): 2.6 g
Area of leaf (1 mg/l, 2 °C, 6 days): 11.7 cm^2
Height (1 mg/l, 2 °C, 6 days): 7.2 cm
Weight of root (1 mg/l, 2 °C, 6 days): 3.0 g
Area of leaf (1 mg/l, 2 °C, 9 days): 12.6 cm^2
Height (1 mg/l, 2 °C, 9 days): 7.3 cm
Weight of root (1 mg/l, 2 °C, 9 days): 3.2 g
Area of leaf (1 mg/l, 2 °C, 12 days): 13 cm^2
Height (1 mg/l, 2 °C, 12 days): 8 cm
Number of leaf (1 mg/l, 2 °C, 12 days): 3
Number of tiller (1 mg/l, 2 °C, 12 days): 3
Weight of root (1 mg/l, 2 °C, 12 days): 3.7 g
Area of leaf (1 mg/l, 3 °C, 3 days): 10.4 cm^2
Height (1 mg/l, 3 °C, 3 days): 7.4 cm
Weight of root (1 mg/l, 3 °C, 3 days): 2.5 g
Area of leaf (1 mg/l, 3 °C, 6 days): 12 cm^2
Height (1 mg/l, 3 °C, 6 days): 7.5 cm
Weight of root (1 mg/l, 3 °C, 6 days): 2.6 g
Area of leaf (1 mg/l, 3 °C, 9 days): 12.1 cm^2
Height (1 mg/l, 3 °C, 9 days): 7.9 cm
Weight of root (1 mg/l, 3 °C, 9 days): 2.9 g
Area of leaf (1 mg/l, 3 °C, 12 days): 13.2 cm^2
Height (1 mg/l, 3 °C, 12 days): 8.1 cm
Number of leaf (1 mg/l, 3 °C, 12 days): 3
Number of tiller (1 mg/l, 3 °C, 12 days): 2
Weight of root (1 mg/l, 3 °C, 12 days): 2.9 g
Area of leaf (1 mg/l, 4 °C, 3 days): 10.9 cm^2
Height (1 mg/l, 4 °C, 3 days): 7.4 cm
Weight of root (1 mg/l, 4 °C, 3 days): 2.5 g
Area of leaf (1 mg/l, 4 °C, 6 days): 12.6 cm^2
Height (1 mg/l, 4 °C, 6 days): 7.5 cm
Weight of root (1 mg/l, 4 °C, 6 days): 2.7 g
Area of leaf (1 mg/l, 4 °C, 9 days): 13.2 cm^2
Height (1 mg/l, 4 °C, 9 days): 8.0 cm
Weight of root (1 mg/l, 4 °C, 9 days): 3.0 g
Area of leaf (1 mg/l, 4 °C, 12 days): 14 cm^2
Height (1 mg/l, 4 °C, 12 days): 8.2 cm
Number of leaf (1 mg/l, 4 °C, 12 days): 3
Number of tiller (1 mg/l, 4 °C, 12 days): 2
Weight of root (1 mg/l, 4 °C, 12 days): 3.2 g
Area of leaf (1 mg/l, 5 °C, 3 days): 11.1 cm^2
Height (1 mg/l, 5 °C, 3 days): 7.4 cm
Weight of root (1 mg/l, 5 °C, 3 days): 2.9 g
Area of leaf (1 mg/l, 5 °C, 6 days): 13.1 cm^2
Height (1 mg/l, 5 °C, 6 days): 7.7 cm
Weight of root (1 mg/l, 5 °C, 6 days): 3.5 g
Area of leaf (1 mg/l, 5 °C, 9 days): 18 cm^2
Height (1 mg/l, 5 °C, 9 days): 8.2 cm
Weight of root (1 mg/l, 5 °C, 9 days): 3.7 g
Area of leaf (1 mg/l, 5 °C, 12 days): 20 cm^2
Height (1 mg/l, 5 °C, 12 days): 8.4 cm
Number of leaf (1 mg/l, 5 °C, 12 days): 3
Number of tiller (1 mg/l, 5 °C, 12 days): 2
Weight of root (1 mg/l, 5 °C, 12 days): 4.5 g
